# From the NIST ThermoML archive (doi:10.1016/j.fluid.2018.08.011)
# Values joined by “and” are separate entries in the source; they are usually repeats but may differ in a detail not shown here. Equal entries are not always repeated. Numbers after ± are expanded uncertainties.
# How the values were obtained:
# [1] = cn = amount concentration of the nth substance listed, in mol/dm3; conditions: Drop volume
# [2] = for surface tension liquid-gas: Drop volume; for mass density / speed of sound: 101.3 kPa, Liquid; for mass density: Vibrating tube method; for speed of sound: Frequency=3 MHz, Single path-length method
smiles,measurement,setting,value
CCCCCCCCCCCCO[C@@H]1O[C@H](CO)[C@@H](O)[C@H](O)[C@H]1O [dodecyl beta.-D-glucopyranoside] + O,surface tension liquid-gas,"[1]; 310.15 K, c1 = 2.33e-05",52.97 ± 0.25 mN/m
same,surface tension liquid-gas,"[1]; 310.15 K, c1 = 3.58e-05",46.13 ± 0.23 mN/m
same,surface tension liquid-gas,"[1]; 310.15 K, c1 = 5.16e-05",41.28 ± 0.22 mN/m
same,surface tension liquid-gas,"[1]; 310.15 K, c1 = 6.49e-05",38.47 ± 0.21 mN/m
same,surface tension liquid-gas,"[1]; 310.15 K, c1 = 7.97e-05",35.61 ± 0.2 mN/m
same,surface tension liquid-gas,"[1]; 310.15 K, c1 = 9.31e-05",34.42 ± 0.19 mN/m
same,surface tension liquid-gas,"[1]; 310.15 K, c1 = 0.000106",33.04 ± 0.19 mN/m
same,surface tension liquid-gas,"[1]; 310.15 K, c1 = 0.000123",31.7 ± 0.19 mN/m
same,surface tension liquid-gas,"[1]; 310.15 K, c1 = 0.000131",31.19 ± 0.19 mN/m
same,surface tension liquid-gas,"[1]; 310.15 K, c1 = 0.000146",29.75 ± 0.18 mN/m
same,surface tension liquid-gas,"[1]; 310.15 K, c1 = 0.000162",30.12 ± 0.18 mN/m
same,surface tension liquid-gas,"[1]; 310.15 K, c1 = 0.000169",29.25 ± 0.18 mN/m
same,surface tension liquid-gas,"[1]; 310.15 K, c1 = 0.000177",29.51 ± 0.18 mN/m
same,surface tension liquid-gas,"[1]; 310.15 K, c1 = 0.000187",29.14 ± 0.18 mN/m
same,surface tension liquid-gas,"[1]; 310.15 K, c1 = 0.000198",29.09 ± 0.18 mN/m
same,surface tension liquid-gas,"[1]; 310.15 K, c1 = 0.00021",29.52 ± 0.18 mN/m
same,surface tension liquid-gas,"[1]; 310.15 K, c1 = 0.000216",29.36 ± 0.18 mN/m
same,surface tension liquid-gas,"[1]; 310.15 K, c1 = 0.000227",29.03 ± 0.18 mN/m
same,surface tension liquid-gas,"[1]; 310.15 K, c1 = 0.000241",29.02 ± 0.18 mN/m
same,surface tension liquid-gas,"[1]; 310.15 K, c1 = 0.000258",29.1 ± 0.18 mN/m
same,surface tension liquid-gas,"[1]; 323.15 K, c1 = 2.33e-05",52.98 ± 0.24 mN/m
same,surface tension liquid-gas,"[1]; 323.15 K, c1 = 3.58e-05",46.38 ± 0.23 mN/m
same,surface tension liquid-gas,"[1]; 323.15 K, c1 = 5.16e-05",41.5 ± 0.22 mN/m
same,surface tension liquid-gas,"[1]; 323.15 K, c1 = 6.49e-05",38.5 ± 0.2 mN/m
same,surface tension liquid-gas,"[1]; 323.15 K, c1 = 9.31e-05",35.04 ± 0.2 mN/m
same,surface tension liquid-gas,"[1]; 323.15 K, c1 = 0.000106",33.77 ± 0.19 mN/m
same,surface tension liquid-gas,"[1]; 323.15 K, c1 = 0.000123",32.19 ± 0.19 mN/m
same,surface tension liquid-gas,"[1]; 323.15 K, c1 = 0.000131",31.35 ± 0.19 mN/m
same,surface tension liquid-gas,"[1]; 323.15 K, c1 = 0.000146",29.99 ± 0.18 mN/m
same,surface tension liquid-gas,"[1]; 323.15 K, c1 = 0.000162",29.72 ± 0.18 mN/m
same,surface tension liquid-gas,"[1]; 323.15 K, c1 = 0.000169",28.68 ± 0.18 mN/m
same,surface tension liquid-gas,"[1]; 323.15 K, c1 = 0.000177",28.83 ± 0.18 mN/m
same,surface tension liquid-gas,"[1]; 323.15 K, c1 = 0.000187",28.4 ± 0.18 mN/m
same,surface tension liquid-gas,"[1]; 323.15 K, c1 = 0.000198",28 ± 0.17 mN/m
same,surface tension liquid-gas,"[1]; 323.15 K, c1 = 0.00021",28.11 ± 0.17 mN/m
same,surface tension liquid-gas,"[1]; 323.15 K, c1 = 0.000216",28.07 ± 0.18 mN/m
same,surface tension liquid-gas,"[1]; 323.15 K, c1 = 0.000227",28.56 ± 0.17 mN/m
same,surface tension liquid-gas,"[1]; 323.15 K, c1 = 0.000241",28.29 ± 0.18 mN/m
same,surface tension liquid-gas,"[1]; 323.15 K, c1 = 0.000258",27.87 ± 0.18 mN/m
O [water],surface tension liquid-gas,[2]; 283.15 K,73.92 ± 0.28 mN/m
same,mass density,[2]; 283.15 K,999.707 ± 0.033 kg/m3
same,speed of sound,[2]; 285.65 K,1457.3 ± 0.24 m/s
same,mass density,[2]; 285.65 K,999.444 ± 0.033 kg/m3
same,speed of sound,[2]; 290.65 K,1474.7 ± 0.23 m/s
same,mass density,[2]; 290.65 K,998.689 ± 0.034 kg/m3
same,speed of sound,[2]; 295.65 K,1490 ± 0.23 m/s
same,mass density,[2]; 295.65 K,997.658 ± 0.034 kg/m3
same,surface tension liquid-gas,[2]; 298.15 K,71.77 ± 0.28 mN/m
same,speed of sound,[2]; 300.65 K,1503.3 ± 0.23 m/s
same,mass density,[2]; 300.65 K,996.376 ± 0.035 kg/m3
same,speed of sound,[2]; 305.65 K,1514.9 ± 0.23 m/s
same,mass density,[2]; 305.65 K,994.867 ± 0.036 kg/m3
same,surface tension liquid-gas,[2]; 310.15 K,70.13 ± 0.27 mN/m and 69.93 ± 0.39 mN/m
same,speed of sound,[2]; 310.65 K,1524.7 ± 0.23 m/s
same,mass density,[2]; 310.65 K,993.147 ± 0.036 kg/m3
same,speed of sound,[2]; 313.15 K,1529 ± 0.23 m/s
same,speed of sound,[2]; 315.65 K,1533 ± 0.23 m/s
same,mass density,[2]; 315.65 K,991.235 ± 0.037 kg/m3
same,speed of sound,[2]; 318.15 K,1536.6 ± 0.23 m/s
same,speed of sound,[2]; 320.65 K,1539.8 ± 0.23 m/s
same,mass density,[2]; 320.65 K,989.14 ± 0.038 kg/m3
same,surface tension liquid-gas,[2]; 323.15 K,68.15 ± 0.27 mN/m and 67.79 ± 0.39 mN/m
same,mass density,[2]; 323.15 K,988.029 ± 0.039 kg/m3
O [water] + CCCCCCCCCCCCO[C@@H]1O[C@H](CO)[C@@H](O)[C@H](O)[C@H]1O,surface tension liquid-gas,"[1]; 310.15 K, c2 = 0",69.93 ± 0.27 mN/m
same,surface tension liquid-gas,"[1]; 323.15 K, c2 = 0",67.79 ± 0.27 mN/m
